Assay results taken from PubChem BioAssay AID179 (DTP/NCI, 2004).
Activity calls are given as the source filed them.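 How the source made its calls: active means compounds giving half or more protection of infected cells from virus-caused growth loss, again on retest; inactive means the rest.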

Test system: CEM cells HIV-1 protection, formazan growth assay
Experiment: NCI AIDS Antiviral Assay
Conditions: for IC50: measured here: growth of uninfected CEM cells
Procedure, shortened: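 Human CEM cells, uninfected and HIV-1-infected, exposed to five drug concentrations; growth measured by soluble formazan assay and scored as percent protection from infection, with protecting compounds retested.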

| SMILES | EC50 | IC50 | outcome |
| --- | --- | --- | --- |
| CC(C)SC1SCC2C(=O)N(C)C3(CC3C)C(=O)OCC(NC(=O)c3nc4ccccc4cc3O)C(=O)NC(C)C(=O)N(C)C1C(=O)N(C)C1(CC1C)C(=O)OCC(NC(=O)c1nc3ccccc3cc1O)C(=O)NC(C)C(=O)N2C (configuration not stated) | > 11.2 µM | 0.00363 µM | – |
| Nc1nc(SCc2ccccc2)c2ncn(CCO)c2n1 | > 200 µM | 191 µM | – |
| CN(C)CC1CCC(CN(C)C)C(=O)C1=O (configuration not stated) | > 200 µM | 0.49 µM | – |
| C=C1CCCCCCCCC/C=C/1SCCCSC | > 200 µM | > 200 µM | – |
| Cc1ccc2c(c1)CC1(Cc3cc(C)ccc3C1=O)C2=O | > 200 µM | > 200 µM | – |
| CCS/C(SC)=C(/c1ccccc1)[P+](c1ccccc1)(c1ccccc1)c1ccccc1 | > 20 µM | 0.355 µM | – |
| COC1/C=C/OC2(C)Oc3c(C)c(O)c4c(O)c(c(CNCc5ccccc5)c(O)c4c3C2=O)NC(=O)/C(C)=C\C=C\C(C)C(O)C(C)C(O)C(C)C(OC(C)=O)C1C (configuration not stated) | > 200 µM | 1.51 µM | – |
| COC(=O)c1ccccc1/C=C1/Cc2cccc(C)c2C1=O | > 200 µM | > 200 µM | – |
| Cc1cccc(NC(=S)N/N=C(/c2ccccc2)c2ccccn2)c1 | > 0.2 µM | 0.0933 µM | – |
| O=C(OCCc1ccccc1)c1cc2cc(O)c(O)cc2cn1 | > 8.32 µM | > 8.32 µM | – |
| CCN1C(c2ccc(Cl)cc2)=NN2C(C)=CC(C)(C)N=C12 | > 85.1 µM | 60.3 µM | – |
| Nc1nc(Cl)cc(NCC2(CO)CCC(OCc3ccccc3)C2)n1 (configuration not stated) | 14.5 µM | 17.8 µM | – |
| C[C@H](NC(=O)c1ccccc1SC(=O)OCCCCCl)C(N)=O | 20.9 µM | > 200 µM | – |
| O=c1c(-c2ccc(O)cc2)coc2c(C3OC(CO)C(O)C(O)C3O)c(O)ccc12 (configuration not stated) | > 200 µM | > 200 µM | – |
| COc1cc2c(cc1O)N=C[C@@H]1CCC(O)N1C2=O (mixture of isomers) | > 324 µM | 0.575 µM | – |
| O=[N+]([O-])c1cccc2nc3ccccc3c(NCCc3cccc[n+]3[O-])c12 | > 200 µM | 0.0631 µM | – |
| CCOc1ccc2nc(NC(=O)/C(CC(=O)CC(C3=C(O)c4ccccc4CC3=O)c3ccccc3)=N\O)sc2c1 (configuration not stated) | > 4.79 µM | > 4.79 µM | – |
| O=C(c1ccco1)N(C(=O)N1CCCCC1)c1ccccc1 | > 200 µM | > 200 µM | – |
| Oc1ccccc1C=Nc1ccccc1SSc1ccccc1N=Cc1ccccc1O | > 200 µM | 8.13 µM | – |
| O=C(c1ccccc1)c1cc2c([nH]c1=O)CCCCCC2 | > 200 µM | > 200 µM | – |
| C=CCn1c(-c2ccc(Cl)cc2)csc1=Nc1ccccc1OC | > 200 µM | > 200 µM | – |
| c1ccc(C2(c3cc4ccccc4[nH]3)OCCO2)nc1 | > 200 µM | > 200 µM | – |

| SMILES | EC50 | IC50 | outcome |
| --- | --- | --- | --- |
| Oc1ccc2ccccc2c1CNCc1c(O)ccc2ccccc12 | > 21.9 µM | > 21.9 µM | – |
| CCOP(=O)(OCC)/C(C#N)=C/c1nc[nH]c1C | > 200 µM | > 200 µM | – |
| OCc1ccc2[n+](c1)CCc1c-2[nH]c2ccccc12 | > 77.6 µM | > 77.6 µM | – |
| O=C(O)C[C@@H]1C(=O)OC2C(COC(=O)c3cc(O)c(O)c(O)c3)OC(OC(=O)c3cc(O)c(O)c(O)c3)C(OC(=O)c3cc(O)c(O)c4c3C1[C@H](O)C(=O)O4)C2OC(=O)c1cc(O)c(O)c(O)c1 (some centres not stated) | 1.48 µM | 12.9 µM | – |
| O=c1c(-c2c(-c3ccccc3)oc3ccc(Cl)cc3c2=O)c(-c2ccccc2)oc2ccc(Cl)cc12 | > 200 µM | > 200 µM | – |
| CCN=C(NC(=O)c1ccc(F)cc1)SCSC(=NCC)NC(=O)c1ccc(F)cc1 | > 200 µM | > 200 µM | – |
| COc1cc2c(cc1O)C1Cc3cc(OC)c(OC)cc3C(C2)N1C (configuration not stated) | > 39.8 µM | > 39.8 µM | – |
| CCNC(=O)c1c(O)c2ccccc2[nH]c1=O | > 200 µM | > 200 µM | – |
| C#CC(C)(C)C(/C=N\NC(=O)O[C@H]1CC(C)CCC1C(C)C)CCC(=O)OC (some centres not stated) | > 200 µM | 25.1 µM | – |
| O=C1C=CC(=O)c2nc(-c3ccccc3)c(-c3ccccc3)nc21 | 0.363 µM | 12 µM | – |
| COC(=O)C1CCc2c1c(=O)n1c([nH]c3ccccc31)c2C#N (configuration not stated) | > 40.7 µM | > 40.7 µM | – |
| C=C(C)CC(OC(=O)C(C)(C)C)c1ccccc1 (configuration not stated) | – | – | inactive |
| CC(=O)NC(=O)C(C(C)=O)c1ccccc1 (configuration not stated) | > 1150 µM | > 1150 µM | – |
| COC(=N)c1ncn(Cc2ccccc2)c1N | > 200 µM | 158 µM | – |
| CC1c2c(n(C)c3ccccc23)C2CCC3(CO3)C1N2Cc1ccccc1 (configuration not stated) | – | – | inactive |
| COc1ccccc1NC(=O)/C(=C\N1CCNC1=S)C(C)=O | > 200 µM | > 200 µM | – |
| COC(=O)c1c2c(cc3c1CC1(Cc4cc5c(cc4C1)CCCC5)C3)CCCC2 | > 200 µM | > 200 µM | – |
| CCn1c(N)c(N=O)c(=O)[nH]c1=O | > 200 µM | > 200 µM | – |
| CCOC(=O)/C(=C/c1ccc(OC)cc1)N(CC)CC | > 468 µM | 263 µM | – |
| CC(=O)C1c2ccccc2C(C(C)=O)(c2ccccc2)C1c1ccccc1 (configuration not stated) | > 200 µM | 38 µM | – |
| CC1=C(O)C(=O)C2C(=O)C1C(C)C2c1ccccc1 (configuration not stated) | > 195 µM | > 195 µM | – |
| COc1nc2c(c(=O)[nH]1)N=C(c1ccc(Cl)cc1)CC(c1ccccc1)N2 (configuration not stated) | > 200 µM | 55 µM | – |

| SMILES | EC50 | IC50 | outcome |
| --- | --- | --- | --- |
| OC1(CN2CCOCC2)N=C(c2ccccc2)c2ccsc2-n2cccc21 (configuration not stated) | > 200 µM | > 200 µM | – |
| C[N+]1(C)CCCC(C#N)(c2ccccc2)CC1 (configuration not stated) | > 813 µM | – | – |
| CC(C)(C)N/N=C(/Cc1nc2c3c(ccc2[nH]c1=O)C(=O)c1ccccc1C3=O)C(=O)NC1=C(Cl)C(=O)c2ccccc2C1=O | > 11.5 µM | > 11.5 µM | – |
| Cn1c2c(c3ccccc31)C(=O)CC2(C)C | > 123 µM | 66.1 µM | – |
| CCN(CC)c1ccc(C2N3CCCCC3[C@@H]3c4[nH]c5ccccc5c4CCN23)cc1 (some centres not stated) | > 16.2 µM | > 16.2 µM | – |
| COC[C@@]12CCC(OC)C34[C@@H]5C[C@@]6(O)C(OC(=O)c7ccccc7)[C@@H]5[C@](OC(C)=O)(C[C@@H]6OC)[C@@H](C(OC)[C@@H]31)[C@@H]4N(C=O)C2 (some centres not stated) | – | – | inactive |
| COC(=O)[C@@H]1C[C@@H](O)CN1C(=O)c1ccc([N+](=O)[O-])cc1[N+](=O)[O-] | > 200 µM | 129 µM | – |
| CCOC(=O)C1=C(C)NC(=S)NC1c1ccccc1 (configuration not stated) | > 93.3 µM | > 93.3 µM | – |
| COc1ccccc1-c1n[nH]c(-c2ccccc2O)n1 | > 200 µM | > 200 µM | – |
| C=CCO/N=C/c1cc(NC(=S)c2ccoc2C)ccc1Cl | 0.0186 µM | 15.5 µM | – |
| S=c1[nH]c2ccc(Br)cc2c(=S)n1-c1ccccc1 | > 195 µM | 56.2 µM | – |
| FC(F)(F)c1nc2ccc(SSc3ccc4nc(C(F)(F)F)[nH]c4c3)cc2[nH]1 | > 100 µM | 91.2 µM | – |
| O=C(O)c1cccc2cccc(C(=O)O)c12.[Hg] | – | – | inactive |
| O=[N+]([O-])c1nccn1CCCN=c1c2ccccc2n(O)c2ccccc12 | > 200 µM | 46.8 µM | – |
| Cc1cc(S(=O)(=O)Nc2nnc3c(C(F)(F)F)cc(Cl)cn23)c(S)cc1Cl | 166 µM | 170 µM | – |
| Cc1cccc(N=Nc2ccc(O)c(CN(C)C)c2)c1 | > 200 µM | 34.7 µM | – |
| COCCCCCCCCCCCC(=O)OCC1OC(n2cc(C)c(=O)[nH]c2=O)CC1F (configuration not stated) | 0.0112 µM | 0.2 µM | – |
| CC(=O)N(CCN1C(=O)c2ccccc2C1=O)CCN1C(=O)c2ccccc2C1=O | – | – | inactive |
| COC(=O)[C@@H]1[C@H]2CC[C@]3(C)[C@@H](OC(C)=O)CC[C@H]3[C@@H]2CC[C@H]1C1(C)SCCS1 | 10 µM | 24 µM | – |
| CC1CC(c2ccc([N+](=O)[O-])cc2)=Nc2ccccc2S1 (configuration not stated) | > 9.12 µM | > 9.12 µM | – |
| COc1ccc2oc(=O)c(-c3csc(-c4ccccc4)n3)cc2c1 | – | – | inactive |
| CCCc1cc(=O)oc2c3c(cc(OC(C)C)c12)O[C@@H](C)[C@H](C)[C@H]3O | > 200 µM | 11.7 µM | – |

| SMILES | EC50 | IC50 | outcome |
| --- | --- | --- | --- |
| CCOC(=O)COc1ccc(S(=O)(=O)c2ccc(OCC(=O)OCC)cc2)cc1 | > 200 µM | > 200 µM | – |
| c1n[nH]cc1C12C3C4C5C3C1C5C42 (configuration not stated) | > 200 µM | 120 µM | – |
| C#CCOCn1cnc2c(=O)[nH]cnc21 | > 331 µM | > 331 µM | – |
| c1ccc(SCCCC(Sc2ccccc2)Sc2ccccc2)cc1 | – | – | inactive |
| CC1C2C1C1C3NN=CC3C2n2c(=O)n(-c3ccccc3)c(=O)n21 (configuration not stated) | > 200 µM | > 200 µM | – |
| CC(=O)OC1CC2C(C)(C)CCC[C@]2(C)C2=C1C(O)=C(C(C)C)C(=O)C2=O (some centres not stated) | – | – | inactive |
| COc1cc(C(C)=O)cc(C(=O)N(C(C)C)C(C)C)c1[Si](C)(C)C | > 100 µM | > 100 µM | – |
| CCCCCCCCCCCCOc1ccc(/C(=N\N=C(N)N)c2ccccc2)c(O)c1 | > 200 µM | > 200 µM | – |
| CC1(C)CCCCCC(C)(CCCO)C1=O (configuration not stated) | > 200 µM | > 200 µM | – |
| Cn1c(=O)c(=O)n(C)c2nc3ccccc3nc21 | > 4.27 µM | > 4.27 µM | – |
| Cc1cc(-c2ccccc2)oc(=O)c1NC(=O)c1ccccc1 | > 200 µM | 97.7 µM | – |
| COc1ccc2c(=O)oc3c(OC)cc(CCN(C)C)c4c(=O)oc1c2c34 | – | – | inactive |
| N=C(N)CCNC(=O)c1c[nH]c2nc(N)[nH]c(=O)c12 | > 347 µM | > 347 µM | – |
| COc1cc2c(c(OC)c1OC)-c1ccc(SC)c(=O)cc1C(NC=O)CC2 (configuration not stated) | > 0.002 µM | 0.0011 µM | – |
| CC1=C(C(=O)Nc2cc(F)c(F)cc2F)C(c2ccc3c(c2)OCO3)C(C(=O)Nc2cc(F)c(F)cc2F)=C(C)N1 | > 61.7 µM | 46.8 µM | – |
| Cc1cc(=O)oc2cc(O)cc(O)c12 | > 1290 µM | 166 µM | – |
| CN(C)CCCOC(=O)C1C[C@@H](O)CN1C(=O)c1ccc2c(c1)OCO2 (some centres not stated) | > 200 µM | > 200 µM | – |
| Clc1ccc(CN2CCCN(Cc3ccc(Cl)c(Cl)c3)S2)cc1Cl | > 61.7 µM | > 61.7 µM | – |
| O=C1N[C@@H](Cc2ccccc2)C(=O)N2CSC[C@H]12 | > 631 µM | > 631 µM | – |
| COc1ccc(NC(=O)CSc2nnc(-c3ccc(N=Cc4ccc(Cl)cc4)cc3)o2)cc1 | > 141 µM | 31.6 µM | – |
